The test concerns the target T1, human ferroportin (Homo sapiens, UniProt Q9NP59).
T1 construct: expressed in transfected cells
T1 sequence (Q9NP59 1-571): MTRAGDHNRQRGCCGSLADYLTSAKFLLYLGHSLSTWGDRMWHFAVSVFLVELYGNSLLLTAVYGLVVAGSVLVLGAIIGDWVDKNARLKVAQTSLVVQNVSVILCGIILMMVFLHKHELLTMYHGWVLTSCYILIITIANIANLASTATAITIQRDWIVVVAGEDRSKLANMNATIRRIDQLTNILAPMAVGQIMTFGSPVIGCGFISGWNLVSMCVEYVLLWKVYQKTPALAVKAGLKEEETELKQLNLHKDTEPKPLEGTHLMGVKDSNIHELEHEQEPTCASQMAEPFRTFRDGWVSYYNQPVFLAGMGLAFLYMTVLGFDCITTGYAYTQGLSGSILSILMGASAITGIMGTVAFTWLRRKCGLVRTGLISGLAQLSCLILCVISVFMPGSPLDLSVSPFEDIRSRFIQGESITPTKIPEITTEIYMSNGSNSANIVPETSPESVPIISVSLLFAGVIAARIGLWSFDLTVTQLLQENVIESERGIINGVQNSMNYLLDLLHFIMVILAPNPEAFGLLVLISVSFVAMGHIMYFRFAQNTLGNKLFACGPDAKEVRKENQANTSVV
The test can be described thus: ferroportin internalization assay (inhibition of hepcidin-induced internalization of Fpn). It counts as cell-based. Particulars: MDCK-FPN-HaloTag cells, 100 nM hepcidin, overnight incubation; concentration range from 0.04 to 40 μM. On the procedure: The hepcidin-antagonistic action of the sulfonaminoquinoline compounds of the present invention was determined by means of the “ferroportin internalization assay” described in the following.
Organic compounds of low molecular weight which counteract the biological actions of hepcidin on its receptor, the iron exporter ferroportin (Fpn), were identified on the basis of their ability to inhibit hepcidin-induced internalization of Fpn in living cells. For this purpose, a stable cell line (Madin-Darby canine kidney, MDCK) was produced which constitutively expresses human ferroportin fused recombinantly at its C terminus with a fluorescent reporter protein (HaloTag®, Promega Corp.). The internalization of Fpn was monitored by labelling these cells with fluorescent ligands (HaloTag®-TMR, tetramethylrhodamine) which join covalently on to the HaloTag reporter gene fused with the Fpn. […] Optimized image analysis algorithms were used to ascertain the cell surface and to quantify the corresponding membrane fluorescence associated with the Fpn-HaloTag fusion protein. This assay allows a quantitative image-based analysis in order to quickly evaluate compounds which can block hepcidin-induced internalization of Fpn. This assay is a direct in vitro pendant of the in vivo action mechanism proposed for medicament candidates and is therefore suitable as an initial assay with a high throughput for identifying compounds which counteract the action of hepcidin on its receptor ferroportin.
• 7,500 cells per well (MDCK-FPN-HaloTag) were transinoculated in 50 μl of DMEM medium (Dulbeccos Modified Eagle Medium with 10% foetal bovine serum (FBS), which contained 1% penicillin, 1% streptomycin and 450 μg/ml of G-418) in microtitre plates with 384 wells (384 Cell carrier plates, Perkin Elmer, cat. no. 6007430), followed by incubation overnight at 37° C./5% CO2. • The volume of the medium was reduced to 10 μl, and 10 μl of 5 μM HaloTag-TMR ligands (Promega, cat. no. G 8251) were added in DMEM medium in order to stain the Fpn-HaloTag fusion protein. • 15 min incubation at 37° C./5% CO2 • The HaloTag-TMR ligand was removed and the cells were washed with fresh DMEM medium and the volume was reduced to 20 μl of DMEM medium. • 3 μl per well of a solution of the test compound (dissolved DMSO) were added ([…]). • 7 μl of […] hepcidin (Peptides International, cat. no. PLP-4392-s, 100 μM stock solution diluted in water in DMEM medium) were added per well up to a final hepcidin concentration of 100 nM. • The cells were incubated overnight at 37° C./5% CO2. • The cells were fixed by adding paraformaldehyde (PFA, Electron Microscopy Sciences, cat. no. 15710-S) directly to the cells up to a final concentration of 4%, followed by incubation at room temperature for 15-20 minutes. • The PFA solution was removed and the cells were washed with PBS (phosphate-buffered saline solution), in each case 30 μl remaining in the plate. • 20 μl of Draq5 (Biostatus, cat. no. DR 51000) were added up to a final concentration of 2.5 μM in order to stain the cell nuclei, and the plates were sealed with a foil plate seal. • The plates were analysed with the Opera Plate Imager (Opera Confocal Plate Imager, Perkin Elmer) with 7 images per well; 440 ms exposure time per image, […] focal point height.

IC50 data for 37 molecules are collected here from patent US9102688B2, “Sulfonaminoquinoline hepcidin antagonists” (Vifor (International) AG, priority 2011, dated 2015).

Usually IC50 stands for the concentration at which inhibition is half-maximal. Read a high IC50 as weaker potency in that assay. For `O=S1(=O)Nc2c(ccc3cccnc23)-c2ccccc21` [Example 2, 5H-6-Thia-4,5-diaza-chrysene 6,6-dioxide], the IC50 worked out at 2.9 µM. `O=S(=O)(Nc1cccc2cccnc12)c1ccccc1` [Example 4, N-Quinolin-8-yl-benzenesulfonamide] displayed an IC50 of 4.59 µM. Molecule `O=S(=O)(Nc1cccc2cccnc12)c1ccc(Cl)cc1` [Example 5, 4-Chloro-N-quinolin-8-yl-benzenesulfonamide] gave a half-maximal inhibitory concentration (IC50) of 3.2 µM. On to `O=[N+]([O-])c1ccccc1S(=O)(=O)Nc1cccc2cccnc12` [Example 6, 2-Nitro-N-quinolin-8-yl-benzenesulfonamide], for which half-maximal inhibition (IC50) was put at 2.9 µM. As for `Nc1ccccc1S(=O)(=O)Nc1cccc2cccnc12` [Example 8, 2-Amino-N-quinolin-8-yl-benzenesulfonamide], half-maximal inhibition (IC50) was put at 20.8 µM. The result for `Cc1ccc(S(=O)(=O)Nc2cccc3cccnc23)cc1` [Example 9, 4-Methyl-N-quinolin-8-yl-benzenesulfonamide] reads 49.9 µM; that for `O=S(=O)(Nc1cccc2cccnc12)c1ccccc1Cl` [Example 11, 2-Chloro-N-quinolin-8-yl-benzenesulfonamide], 8 µM. As to `Cc1ccc(S(=O)(=O)Nc2cccc3cccnc23)c(N)c1` [Example 14, 2-Amino-4-methyl-N-quinolin-8-yl-benzenesulfonamide], it took 0.3 µM to reach half-maximal inhibition (IC50). For the molecule `N#Cc1cccc(S(=O)(=O)Nc2cccc3cccnc23)c1` [Example 16, 3-Cyano-N-quinolin-8-yl-benzenesulfonamide], the IC50 is 0.413 µM. As to `O=S(=O)(Nc1cccc2cccnc12)c1ccc(C(F)(F)F)cc1` [Example 17, N-Quinolin-8-yl-4-trifluoromethyl-benzenesulfonamide], the midpoint of inhibition, the IC50, lay at 1 µM. The result for `Cc1cccc(S(=O)(=O)Nc2cccc3cccnc23)c1` [Example 19, 3-Methyl-N-quinolin-8-yl-benzenesulfonamide] reads 2.09 µM. Take `O=S(=O)(Nc1cccc2cccnc12)c1cccc(Cl)c1` [Example 20, 3-Chloro-N-quinolin-8-yl-benzenesulfonamide]: the IC50 worked out at 0.985 µM. The value for `COc1cccc(S(=O)(=O)Nc2cccc3cccnc23)c1` [Example 21, 3-Methoxy-N-quinolin-8-yl-benzenesulfonamide] was 1.5 µM.

As to `COc1cc(NS(=O)(=O)c2ccccc2)c2ncccc2c1` [Example 23, N-(6-Methoxy-quinolin-8-yl)-benzenesulfonamide], the IC50 amounted to 6.4 µM. Take `O=S(=O)(Nc1ccc(Cl)c2cccnc12)c1ccccc1` [Example 25, N-(5-Chloro-quinolin-8-yl)-benzenesulfonamide]: the IC50 was 1.67 µM. The result for `O=[N+]([O-])c1cc(F)ccc1S(=O)(=O)Nc1cccc2cccnc12` [Example 30, 4-Fluoro-2-nitro-N-quinolin-8-yl-benzenesulfonamide] reads 0.92 µM; that for `Nc1cc(F)ccc1S(=O)(=O)Nc1cccc2cccnc12` [Example 31, 2-Amino-4-fluoro-N-quinolin-8-yl-benzenesulfonamide], 3.94 µM. The value for `O=S(=O)(Nc1cccc2cccnc12)c1cccnc1` [Example 33, Pyridine-3-sulfonic acid quinolin-8-ylamide] was 3.64 µM; that for `COc1ccc(S(=O)(=O)Nc2cccc3cccnc23)c([N+](=O)[O-])c1` [Example 34, 4-Methoxy-2-nitro-N-quinolin-8-yl-benzenesulfonamide] was 1.81 µM; that for `Nc1cc(C(F)(F)F)ccc1S(=O)(=O)Nc1cccc2cccnc12` [Example 35, 2-Amino-N-quinolin-8-yl-4-trifluoromethyl-benzenesulfonamide] was 0.76 µM. The value for `O=S(=O)(Nc1cccc2cccnc12)c1ccccc1OC(F)(F)F` [Example 36, N-Quinolin-8-yl-2-trifluoromethoxy-benzenesulfonamide] was 2.5 µM; that for `N#Cc1ccccc1S(=O)(=O)Nc1cccc2cccnc12` [Example 37, 2-Cyano-N-quinolin-8-yl-benzenesulfonamide] was 0.815 µM; that for `O=S(=O)(Nc1cccc2cccnc12)c1cccc(OC(F)(F)F)c1` [Example 38, N-Quinolin-8-yl-3-trifluoromethoxy-benzenesulfonamide] was 1.2 µM. The molecule `COC(=O)c1ccccc1S(=O)(=O)Nc1cccc2cccnc12` [Example 39, 2-(Quinolin-8-ylsulfamoyl)-benzoic acid methyl ester] had an IC50 of 58.1 µM.

The molecule `COC(=O)c1cccc(S(=O)(=O)Nc2cccc3cccnc23)c1` [Example 40, 3-(Quinolin-8-ylsulfamoyl)-benzoic acid methyl ester] gave an IC50 of 1.42 µM. The molecule `O=S(=O)(Nc1cccc2cccnc12)c1ccc(Cl)cc1Cl` [Example 41, 2,4-Dichloro-N-quinolin-8-yl-benzenesulfonamide] had an IC50 of 0.989 µM. For `O=S(=O)(Nc1cccc2cccnc12)c1ccc(Cl)cc1F` [Example 42, 4-Chloro-2-fluoro-N-quinolin-8-yl-benzenesulfonamide], 0.873 µM corresponded to half-maximal inhibition (IC50). The IC50 values of the last two molecules are within 1.5-fold of each other. Molecule `O=S(=O)(Nc1cccc2cccnc12)c1ccccc1C(F)(F)F` [Example 43, N-Quinolin-8-yl-2-trifluoromethyl-benzenesulfonamide] showed an IC50 of 0.419 µM. Against the preceding molecule, the IC50 is about 2.1-fold lower.

On to `O=S(=O)(Nc1cccc2cccnc12)c1cccc(C(F)(F)F)c1` [Example 44, N-Quinolin-8-yl-3-trifluoromethyl-benzenesulfonamide], for which the IC50 was 0.72 µM. Against the preceding molecule, the IC50 is about 1.7-fold higher. The value for `Cc1cnc2c(NS(=O)(=O)c3ccccc3)cccc2c1` [Example 45, N-(3-Methyl-quinolin-8-yl)-benzenesulfonamide] was 0.61 µM; that for `O=S(=O)(Nc1ccccc1)Nc1cccc2cccnc12` [Example 46, N-phenyl(quinolin-8-ylamino)sulfonamide] was 2.3 µM. Molecule `O=S(=O)(Nc1cccc2cccnc12)c1c(Cl)cc(Cl)cc1Cl` [Example 47, 2,4,6-Trichloro-N-quinolin-8-yl-benzenesulfonamide] returned a half-inhibitory concentration (IC50) of 0.857 µM. In turn, `CC(C)C(=O)Nc1ccccc1S(=O)(=O)Nc1cccc2cccnc12` [Example 48, N-[2-(Quinolin-8-ylsulfamoyl)-phenyl]-isobutyramide] returned an IC50 of 24.6 µM. With `O=C(Nc1ccccc1S(=O)(=O)Nc1cccc2cccnc12)C(F)(F)F` [Example 49, 2,2,2-Trifluoro-N-[2-(quinolin-8-ylsulfamoyl)-phenyl]-acetamide], the IC50 stood at 0.307 µM. For `CC(=O)Nc1ccccc1S(=O)(=O)Nc1cccc2cccnc12` [Example 50, N-[2-(Quinolin-8-ylsulfamoyl)-phenyl]-acetamide], 1.37 µM corresponded to half-maximal inhibition (IC50). This IC50 is about 4.5-fold higher than that of the molecule before. The value for `Cc1ccc(S(=O)(=O)Nc2c(Cl)cc(Cl)c3cccnc23)cc1` [Example 51, N-(5,7-Dichloro-quinolin-8-yl)-4-methyl-benzenesulfonamide] was 79 µM. Molecule `O=S(=O)(Nc1ccc(Cl)c2cccnc12)c1ccc(Cl)cc1F` [Example 54, 4-Chloro-N-(5-chloro-quinolin-8-yl)-2-fluoro-benzenesulfonamide] showed an IC50 of 1.38 µM. Against the preceding molecule, the IC50 is about 57-fold lower.
